Assay results: patent US9050341B2, “Methods of treating drug resistant and other tumors by administering 6,7-dialkoxy quinazoline derivatives” (NATCO PHARMA LIMITED, priority 2009, dated 2015)

Key:
Experiment in all cases: KinomeScan kinase profiling
Type in all cases: binding
[1] = target: T1, CLK4 (Homo sapiens, UniProt Q9HAZ1)
T1 construct: host or cells: T7 phage in E. coli (BL21-derived)
In short: (§1)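 Kinases were expressed as T7 phage fusions in a BL21-derived E. coli host and the cleared lysates were used. Ligand beads were blocked with biotin and buffer (1% BSA, 0.05% Tween 20, 1 mM DTT). Compounds came from 40× DMSO stocks, and phage in the eluates was titred by qPCR.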

[2] = target: T2, LIMK2 (Homo sapiens, UniProt P53671)
T2 construct: host or cells: T7 phage in E. coli host derived from BL21
In short: as §1

[3] = target: T3, ABL1 (Y253F) (Homo sapiens, UniProt P00519, Y253F)
T3 construct: host or cells: E. coli host derived from BL21 (T7 phage lysate)
In short: as §1

[4] = target: T4, RPS6KA5 (Kin.Dom.-1-N-terminal) (Homo sapiens, UniProt O75582)
T4 construct: RPS6KA5 (Kin.Dom.-1-N-terminal); host or cells: E. coli host derived from BL21, T7 phage lysate
In short: as §1

[5] = target: T5, DAPK3 (Homo sapiens, UniProt O43293)
T5 construct: purchased Ambit Biosciences Corp (KinomeScan); host or cells: T7 phage in E. coli host derived from BL21
In short: as §1

[6] = target: T6, ULK3 (Homo sapiens, UniProt Q6PHR2)
T6 construct: purchased Ambit Biosciences Corp (KinomeScan); host or cells: E. coli host derived from the BL21 strain (T7 phage lysate)
In short: as §1

[7] = target: T7, FLT1 (Homo sapiens, UniProt P17948)
T7 construct: host or cells: E. coli host derived from BL21, infected with T7 phage
In short: as §1

[8] = target: T8, MYLK2 (Homo sapiens, UniProt Q9H1R3)
T8 construct: host or cells: T7 phage in E. coli host derived from BL21
In short: as §1

[9] = target: T9, MINK (Homo sapiens, UniProt Q8N4C8)
T9 construct: host or cells: E. coli derived from BL21, infected with T7 phage
In short: as §1

[10] = target: T10, PCTK2 (Homo sapiens, UniProt Q00537)
T10 construct: host or cells: E. coli host derived from the BL21 strain, infected with T7 phage
In short: as §1

[11] = target: T11, PYK2 (Homo sapiens, UniProt Q14289)
T11 construct: host or cells: E. coli host derived from BL21, T7 phage lysate
In short: as §1

[12] = target: T12, BMPR2 (Homo sapiens, UniProt Q13873)
T12 construct: purchased Ambit Biosciences Corp (KinomeScan); host or cells: E. coli host derived from the BL21 strain, T7 phage
In short: as §1

[13] = target: T13, TXK (Homo sapiens, UniProt P42681)
T13 construct: purchased Ambit Biosciences Corp (KinomeScan); host or cells: E. coli host derived from the BL21 strain (T7 phage lysate)
In short: as §1

[14] = target: T14, EPHB1 (Homo sapiens, UniProt P54762)
T14 construct: host or cells: E. coli host derived from BL21, T7 phage lysate
In short: as §1

[15] = target: T15, TIE2 (Homo sapiens, UniProt Q02763)
T15 construct: purchased Ambit Biosciences Corp (KinomeScan); host or cells: E. coli host derived from the BL21 strain (T7 phage lysate)
In short: as §1

[16] = target: T16, RPS6KA6 (Kin.Dom.-1-N-terminal) (Homo sapiens, UniProt Q9UK32)
T16 construct: RPS6KA6 (Kin.Dom.-1-N-terminal); host or cells: E. coli host derived from BL21, T7 phage lysate
In short: as §1

[17] = target: T17, TNIK (Homo sapiens, UniProt Q9UKE5)
T17 construct: purchased Ambit Biosciences Corp (KinomeScan); host or cells: E. coli host derived from the BL21 strain (T7 phage lysate)
In short: as §1

[18] = target: T18, PKMYT1 (Homo sapiens, UniProt Q99640)
T18 construct: purchased Ambit Biosciences Corp (KinomeScan); host or cells: E. coli host derived from BL21, infected with T7 phage
In short: as §1

[19] = target: T19, DRAK1 (Homo sapiens, UniProt Q9UEE5)
T19 construct: purchased Ambit Biosciences Corp (KinomeScan); host or cells: T7 phage in E. coli host derived from BL21
In short: as §1

[20] = target: T20, FYN (Homo sapiens, UniProt P06241)
T20 construct: host or cells: E. coli host derived from BL21, infected with T7 phage
In short: as §1

[21] = target: T21, CAMKK2 (Homo sapiens, UniProt Q96RR4)
T21 construct: host or cells: T7 phage in E. coli (BL21-derived)
In short: as §1

T21 sequence (Q96RR4 whole entry): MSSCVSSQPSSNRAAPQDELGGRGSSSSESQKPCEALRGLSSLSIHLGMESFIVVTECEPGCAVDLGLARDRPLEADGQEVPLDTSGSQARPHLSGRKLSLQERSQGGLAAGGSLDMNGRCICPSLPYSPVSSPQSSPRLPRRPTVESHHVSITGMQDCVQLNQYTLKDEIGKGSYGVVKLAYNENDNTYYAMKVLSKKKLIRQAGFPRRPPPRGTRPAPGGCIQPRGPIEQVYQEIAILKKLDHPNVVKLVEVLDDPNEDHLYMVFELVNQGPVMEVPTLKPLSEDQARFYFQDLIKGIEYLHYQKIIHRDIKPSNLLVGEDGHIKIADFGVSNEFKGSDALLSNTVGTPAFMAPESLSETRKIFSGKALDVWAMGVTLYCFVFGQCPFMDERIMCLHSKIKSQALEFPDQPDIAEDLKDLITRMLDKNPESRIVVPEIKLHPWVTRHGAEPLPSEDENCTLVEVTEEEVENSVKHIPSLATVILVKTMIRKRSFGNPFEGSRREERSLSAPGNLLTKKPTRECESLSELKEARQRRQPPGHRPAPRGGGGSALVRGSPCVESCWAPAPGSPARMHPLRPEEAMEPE
T16 sequence (Q9UK32 73-330 limits assumed): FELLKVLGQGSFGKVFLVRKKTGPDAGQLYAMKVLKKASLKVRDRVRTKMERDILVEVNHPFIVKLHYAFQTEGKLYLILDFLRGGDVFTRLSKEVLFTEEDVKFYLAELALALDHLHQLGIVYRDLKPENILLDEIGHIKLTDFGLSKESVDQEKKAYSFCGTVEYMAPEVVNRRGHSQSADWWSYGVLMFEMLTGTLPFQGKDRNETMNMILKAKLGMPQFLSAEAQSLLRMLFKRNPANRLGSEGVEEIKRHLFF
T1 sequence (Q9HAZ1 whole entry): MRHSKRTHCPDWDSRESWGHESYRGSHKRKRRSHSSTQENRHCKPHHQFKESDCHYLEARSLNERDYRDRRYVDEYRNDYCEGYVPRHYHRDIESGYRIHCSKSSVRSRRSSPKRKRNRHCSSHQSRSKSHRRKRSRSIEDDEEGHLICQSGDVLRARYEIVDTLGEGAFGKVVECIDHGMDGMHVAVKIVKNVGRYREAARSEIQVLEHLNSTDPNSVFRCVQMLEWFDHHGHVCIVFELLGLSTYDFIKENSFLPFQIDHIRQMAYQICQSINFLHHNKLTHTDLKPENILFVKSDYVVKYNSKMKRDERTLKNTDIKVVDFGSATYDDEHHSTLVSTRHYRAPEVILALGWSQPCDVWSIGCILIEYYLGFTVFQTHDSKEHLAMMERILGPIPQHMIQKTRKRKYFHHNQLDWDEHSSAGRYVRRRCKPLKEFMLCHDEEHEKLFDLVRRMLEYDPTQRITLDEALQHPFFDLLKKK
T15 sequence (Q02763 23-1124): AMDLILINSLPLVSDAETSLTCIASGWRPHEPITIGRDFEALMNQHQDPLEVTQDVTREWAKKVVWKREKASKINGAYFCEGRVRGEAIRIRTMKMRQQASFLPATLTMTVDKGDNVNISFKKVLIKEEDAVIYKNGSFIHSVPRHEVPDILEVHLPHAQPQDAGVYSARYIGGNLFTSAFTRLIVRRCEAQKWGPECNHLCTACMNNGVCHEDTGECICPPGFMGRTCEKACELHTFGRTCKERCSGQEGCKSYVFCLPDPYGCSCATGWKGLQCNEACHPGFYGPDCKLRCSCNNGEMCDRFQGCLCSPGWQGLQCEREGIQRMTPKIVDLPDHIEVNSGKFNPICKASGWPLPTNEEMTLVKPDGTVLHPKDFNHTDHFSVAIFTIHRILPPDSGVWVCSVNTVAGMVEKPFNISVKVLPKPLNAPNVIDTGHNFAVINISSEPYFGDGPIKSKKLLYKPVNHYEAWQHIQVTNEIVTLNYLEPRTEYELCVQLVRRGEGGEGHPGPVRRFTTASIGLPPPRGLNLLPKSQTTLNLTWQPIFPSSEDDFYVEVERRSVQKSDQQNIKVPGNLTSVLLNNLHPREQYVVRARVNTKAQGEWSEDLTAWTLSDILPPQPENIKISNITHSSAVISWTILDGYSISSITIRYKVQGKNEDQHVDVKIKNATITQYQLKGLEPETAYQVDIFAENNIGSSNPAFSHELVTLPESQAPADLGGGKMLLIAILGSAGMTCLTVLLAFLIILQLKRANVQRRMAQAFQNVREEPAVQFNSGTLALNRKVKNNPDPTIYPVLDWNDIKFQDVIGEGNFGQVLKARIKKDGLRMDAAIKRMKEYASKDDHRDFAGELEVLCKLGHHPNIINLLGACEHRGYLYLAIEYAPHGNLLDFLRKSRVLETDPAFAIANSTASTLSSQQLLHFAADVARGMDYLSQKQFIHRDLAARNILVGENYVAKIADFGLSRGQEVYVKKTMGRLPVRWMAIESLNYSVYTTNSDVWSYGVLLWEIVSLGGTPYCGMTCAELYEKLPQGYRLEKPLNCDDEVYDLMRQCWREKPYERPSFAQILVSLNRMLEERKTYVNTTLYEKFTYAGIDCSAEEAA
T13 sequence (P42681 whole entry): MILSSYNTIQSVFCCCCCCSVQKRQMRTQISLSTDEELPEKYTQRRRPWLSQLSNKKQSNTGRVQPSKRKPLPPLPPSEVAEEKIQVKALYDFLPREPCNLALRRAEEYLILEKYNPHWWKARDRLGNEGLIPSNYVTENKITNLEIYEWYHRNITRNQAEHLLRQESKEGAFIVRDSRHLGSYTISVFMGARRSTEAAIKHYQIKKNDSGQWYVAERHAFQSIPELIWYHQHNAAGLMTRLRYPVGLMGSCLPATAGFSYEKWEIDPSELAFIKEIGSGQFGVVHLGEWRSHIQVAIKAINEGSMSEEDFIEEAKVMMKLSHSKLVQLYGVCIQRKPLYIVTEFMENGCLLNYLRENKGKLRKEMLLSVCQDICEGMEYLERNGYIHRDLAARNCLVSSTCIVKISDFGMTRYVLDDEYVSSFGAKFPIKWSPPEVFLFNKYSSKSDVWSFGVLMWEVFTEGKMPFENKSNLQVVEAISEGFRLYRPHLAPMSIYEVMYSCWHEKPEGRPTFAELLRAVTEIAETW
T5 sequence (O43293 whole entry): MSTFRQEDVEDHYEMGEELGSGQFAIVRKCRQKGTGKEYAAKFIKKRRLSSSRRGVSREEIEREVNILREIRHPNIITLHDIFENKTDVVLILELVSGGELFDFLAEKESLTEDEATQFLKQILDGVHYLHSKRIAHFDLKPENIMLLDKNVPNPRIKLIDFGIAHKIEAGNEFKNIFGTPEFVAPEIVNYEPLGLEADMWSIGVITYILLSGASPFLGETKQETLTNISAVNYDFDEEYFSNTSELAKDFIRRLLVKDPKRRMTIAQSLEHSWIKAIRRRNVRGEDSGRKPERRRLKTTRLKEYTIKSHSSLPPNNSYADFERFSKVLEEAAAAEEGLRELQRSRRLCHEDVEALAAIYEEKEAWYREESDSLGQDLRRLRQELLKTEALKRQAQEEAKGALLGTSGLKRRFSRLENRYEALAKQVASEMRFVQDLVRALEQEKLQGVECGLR
T20 sequence (P06241 whole entry): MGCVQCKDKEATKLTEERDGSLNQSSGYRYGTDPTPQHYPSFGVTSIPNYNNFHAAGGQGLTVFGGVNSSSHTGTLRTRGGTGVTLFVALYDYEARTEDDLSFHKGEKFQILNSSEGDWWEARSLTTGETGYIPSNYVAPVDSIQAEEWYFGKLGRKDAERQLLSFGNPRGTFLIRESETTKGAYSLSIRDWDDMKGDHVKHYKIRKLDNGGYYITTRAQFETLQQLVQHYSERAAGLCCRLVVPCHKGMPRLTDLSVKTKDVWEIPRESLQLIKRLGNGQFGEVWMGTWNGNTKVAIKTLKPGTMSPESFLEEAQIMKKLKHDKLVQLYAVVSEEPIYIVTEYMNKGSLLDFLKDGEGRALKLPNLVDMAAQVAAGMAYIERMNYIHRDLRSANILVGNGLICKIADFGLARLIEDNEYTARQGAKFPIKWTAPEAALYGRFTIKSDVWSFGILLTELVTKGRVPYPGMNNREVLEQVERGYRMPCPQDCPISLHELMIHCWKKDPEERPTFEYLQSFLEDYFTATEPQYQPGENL
T11 sequence (Q14289 whole entry): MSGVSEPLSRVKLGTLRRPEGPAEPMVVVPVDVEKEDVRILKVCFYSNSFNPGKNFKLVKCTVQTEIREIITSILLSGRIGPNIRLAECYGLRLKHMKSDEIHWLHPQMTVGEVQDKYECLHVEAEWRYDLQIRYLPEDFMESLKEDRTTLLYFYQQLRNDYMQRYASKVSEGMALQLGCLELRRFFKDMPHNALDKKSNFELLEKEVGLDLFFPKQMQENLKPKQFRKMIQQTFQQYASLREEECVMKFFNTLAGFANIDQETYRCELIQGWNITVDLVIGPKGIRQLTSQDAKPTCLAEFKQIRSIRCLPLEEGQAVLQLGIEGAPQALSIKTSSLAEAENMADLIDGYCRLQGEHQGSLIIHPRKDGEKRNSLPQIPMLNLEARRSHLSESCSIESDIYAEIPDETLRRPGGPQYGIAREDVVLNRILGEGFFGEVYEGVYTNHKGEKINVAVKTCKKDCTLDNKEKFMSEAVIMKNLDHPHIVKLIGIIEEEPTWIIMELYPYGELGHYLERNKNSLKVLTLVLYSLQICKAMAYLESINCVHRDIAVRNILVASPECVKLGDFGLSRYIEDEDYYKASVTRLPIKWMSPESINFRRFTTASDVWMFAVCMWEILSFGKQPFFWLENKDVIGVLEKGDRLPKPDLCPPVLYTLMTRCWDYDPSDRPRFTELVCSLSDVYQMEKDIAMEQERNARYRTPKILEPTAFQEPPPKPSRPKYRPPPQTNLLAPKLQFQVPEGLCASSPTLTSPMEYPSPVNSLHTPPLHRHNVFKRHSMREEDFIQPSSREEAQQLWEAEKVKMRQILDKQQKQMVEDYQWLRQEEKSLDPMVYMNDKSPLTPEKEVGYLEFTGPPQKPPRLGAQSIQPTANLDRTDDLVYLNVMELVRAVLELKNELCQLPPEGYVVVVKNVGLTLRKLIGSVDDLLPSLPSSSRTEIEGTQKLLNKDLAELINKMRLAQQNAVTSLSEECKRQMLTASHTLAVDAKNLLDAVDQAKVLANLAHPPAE

Q: How did the “% Ctrl @ 10000 nM” value [1] turn out when `C#Cc1cccc(Nc2ncnc3cc(OC)c(OCCCN4CCOCC4)cc23)c1` [NRC-2694, N-(3-ethylnylphenyl)-7-methoxy-6-[3-(4-morpholinyl)propoxy]-4-quinazolinamine] was run?
A: 17 % Ctrl

Q: What about the “% Ctrl @ 10000 nM” value [2] of the same molecule?
A: 100 % Ctrl

Q: And the “% Ctrl @ 10000 nM” value [3]?
A: 23 % Ctrl

Q: And the “% Ctrl @ 10000 nM” value [4]?
A: 85 % Ctrl

Q: What about the “% Ctrl @ 10000 nM” value [5] of the same molecule?
A: 34 % Ctrl

Q: And the “% Ctrl @ 10000 nM” value [6]?
A: 62 % Ctrl

Q: What about the “% Ctrl @ 10000 nM” value [7] of the same molecule?
A: 64 % Ctrl

Q: What about the “% Ctrl @ 10000 nM” value [8] of the same molecule?
A: 4.8 % Ctrl

Q: What about the “% Ctrl @ 10000 nM” value [9] of the same molecule?
A: 16 % Ctrl

Q: And the “% Ctrl @ 10000 nM” value [10]?
A: 72 % Ctrl

Q: What about the “% Ctrl @ 10000 nM” value [11] of the same molecule?
A: 71 % Ctrl

Q: And the “% Ctrl @ 10000 nM” value [12]?
A: 100 % Ctrl

Q: And the “% Ctrl @ 10000 nM” value [13]?
A: 39 % Ctrl

Q: And the “% Ctrl @ 10000 nM” value [14]?
A: 72 % Ctrl

Q: What about the “% Ctrl @ 10000 nM” value [15] of the same molecule?
A: 76 % Ctrl

Q: What about the “% Ctrl @ 10000 nM” value [16] of the same molecule?
A: 94 % Ctrl

Q: What about the “% Ctrl @ 10000 nM” value [17] of the same molecule?
A: 17 % Ctrl

Q: What about the “% Ctrl @ 10000 nM” value [18] of the same molecule?
A: 74 % Ctrl

Q: And the “% Ctrl @ 10000 nM” value [19]?
A: 51 % Ctrl

Q: And the “% Ctrl @ 10000 nM” value [20]?
A: 41 % Ctrl

Q: And the “% Ctrl @ 10000 nM” value [21]?
A: 60 % Ctrl
